Data set [1] in a line: UV absorption spectrum in acetonitrile. The format is physicochemical. Conditions: for Maximum absorption wavelength: absorption in a range of 300 nm to 400 nm; for ε at maximum absorption wavelength (molar extinction coefficient): second line of the cell. On the procedure:
(§1) Compound Nos. 4, 5, 7, 10, 20, 6, 35, 38 and 40 and Comparative Compound 1 represented by the Formula below were each dissolved in acetonitrile, and their absorption spectra were measured using a […] U-3010 to determine the values of ?max and (molar extinction coefficient) for absorption in a range of 300 nm to 400 nm as well as the value of ε at 365 nm. […] As for the solubility, the concentration of each compound was increased by 1%-by-mass increments and the concentration at which no compound was left undissolved was determined and, in the results shown in Table 4, the solubility is indicated in terms of this concentration.

The nature of data set [2]: Solubility to propylene glycol monomethyl ether acetate at 25° C. Format: physicochemical. The conditions noted are these: for Solubility: concentration at which no compound was left undissolved; for solubility, ranking among compounds grouped by sulfonate moiety: among Compound Nos. 4, 5, 7 and 10, among Compound Nos. 6, 38 and 40. On the procedure: as §1
Data set [3] in a line: Weight loss starting point (thermal analysis). The format is physicochemical.
Where [4] appears, read: propylene glycol monomethyl ether acetate, 25° C.

Consider `CC1(C)C2CCC1(CS(=O)(=O)ON1C(=O)c3cccc4cccc(c34)C1=O)C(=O)C2` (centres unmarked) [Comparative Compound 1, reference compound], for which, in data set [1], the “ε at 365 nm” value is recorded as 6.48 × 10^2, the Maximum absorption wavelength was determined as 335 nm and the “ε at maximum absorption wavelength (molar extinction coefficient)” value (shortened to “ε at maximum absorption wavelength”) was 1.34 × 10^4. Moreover, the Solubility in data set [2] (setting [4]) stood at 2 % by mass.

As for `CCCCc1ccc2c3c(cccc13)C(=O)N(OS(=O)(=O)C(F)(F)F)C2=O` [Compound No. 4], the melting point turned out to be 110 °C. Moreover, in data set [3], the “Weight loss starting point” value was determined as 250 °C. For the same molecule, in data set [1], the “ε at 365 nm” value was 1.16 × 10^4, the Maximum absorption wavelength amounted to 346 nm and the “ε at maximum absorption wavelength” value is 1.65 × 10^4. In data set [2], the “solubility, ranking among compounds grouped by sulfonate moiety” value is given as “highest solubility”. Further, in data set [2] (setting [4]), the “solubility (in words)” value is “high solubility”; the “solubility, comparison between Compound Nos. 4 and 20 (different Xs)” value is listed as “higher solubility”; the Solubility is 20 % by mass.

`CCCCc1ccc2c3c(cccc13)C(=O)N(OS(=O)(=O)c1ccc(C)cc1)C2=O` [Compound No. 6]: the melting point was 145.1 °C. In addition, the “Weight loss starting point” value in data set [3] turned out to be 314.8 °C. Further, in data set [1], the “ε at 365 nm” value is reported as 1.02 × 10^4, the Maximum absorption wavelength worked out at 343.5 nm and the “ε at maximum absorption wavelength” value is given as 1.67 × 10^4. The “solubility, ranking among compounds grouped by sulfonate moiety” value in data set [2] is reported as “highest solubility”. The Solubility in data set [2] (setting [4]) is on record as 2.3 % by mass.

`CCCCc1ccc2c3c(cccc13)C(=O)N(OS(=O)(=O)c1c(C(C)C)cc(C(C)C)cc1C(C)C)C2=O` [Compound No. 7] registered a melting point of 131 °C. Moreover, in data set [3], the “Weight loss starting point” value came to 267 °C. Further, in data set [1], the “ε at 365 nm” value is reported as 1.06 × 10^4, the Maximum absorption wavelength worked out at 344 nm and the “ε at maximum absorption wavelength” value is on record as 1.65 × 10^4. Also, the Solubility in data set [2] (setting [4]) was 5 % by mass.

For the molecule `CCCCc1ccc2c3c(cccc13)C(=O)N(OS(=O)(=O)CC13CCC(CC1=O)C3(C)C)C2=O` (centres unmarked) [Compound No. 10], the melting point was 134 °C. Besides, the “Weight loss starting point” value in data set [3] amounted to 279 °C. Besides, in data set [1], the “ε at 365 nm” value is 1.17 × 10^4, the Maximum absorption wavelength came out at 346 nm and the “ε at maximum absorption wavelength” value is given as 1.68 × 10^4. This molecule also had a Solubility in data set [2] (setting [4]) of 5 % by mass.

Molecule `CCc1ccc2c3c(cccc13)C(=O)N(OS(=O)(=O)C(F)(F)F)C2=O` [Compound No. 20] returned a melting point of 145 °C. For the same molecule, the “Weight loss starting point” value in data set [3] came out at 253 °C. Further, in data set [1], the “ε at 365 nm” value is given as 9.95 × 10^3, the Maximum absorption wavelength amounted to 344 nm and the “ε at maximum absorption wavelength” value was 1.64 × 10^4. Besides, the Solubility in data set [2] (setting [4]) was 5 % by mass.

In the case of `CCCCc1ccc2c3c(cccc13)C(=O)N(OS(=O)(=O)c1ccc(C(F)(F)F)cc1)C2=O` [Compound No. 35], the melting point came to 192 °C. Besides, the “Weight loss starting point” value in data set [3] is 302 °C. In data set [1], the “ε at 365 nm” value is 1.11 × 10^4, the Maximum absorption wavelength came to 345.0 nm and the “ε at maximum absorption wavelength” value is 1.68 × 10^4. In data set [2] (setting [4]), the Solubility worked out at 2.0 % by mass.

With `CCCCC(CC)Cc1ccc2c3c(cccc13)C(=O)N(OS(=O)(=O)c1ccc(C)cc1)C2=O` (centres unmarked) [Compound No. 38], the melting point was 129.6 °C. In addition, the “Weight loss starting point” value in data set [3] turned out to be 304.9 °C. Moreover, in data set [1], the “ε at 365 nm” value was 1.24 × 10^4, the Maximum absorption wavelength was 345 nm and the “ε at maximum absorption wavelength” value is reported as 1.76 × 10^4. This molecule came in with a Solubility in data set [2] (setting [4]) of 1.6 % by mass.

Consider `CCCCCCCCCCCCCCc1ccc2c3c(cccc13)C(=O)N(OS(=O)(=O)c1ccc(C)cc1)C2=O` [Compound No. 40], for which the melting point was 95.5 °C. The “Weight loss starting point” value in data set [3] amounted to 301.8 °C. Further, in data set [1], the “ε at 365 nm” value is given as 1.05 × 10^4, the Maximum absorption wavelength came to 344.5 nm and the “ε at maximum absorption wavelength” value is listed as 1.68 × 10^4. The molecule further returned a Solubility in data set [2] (setting [4]) of 1.9 % by mass.

(Values after patent US20150315153A1, “NOVEL SULFONIC ACID DERIVATIVE COMPOUND, PHOTOACID GENERATOR, CATIONIC POLYMERIZATION INITIATOR, RESIST COMPOSITION, AND CATIONICALLY POLYMERIZABLE COMPOSITION” (ADEKA CORPORATION, priority 2012, published 2015).)
